Laboratory results taken from patent US8183379B2, “Antitumor agents” (Wayne State University, priority 2005, dated 2012).
Like-named read-outs stand apart in the source and are kept apart here.

How the values were obtained:
[1] = tested on: Mammary Adenocarcinoma 16/C; assay: Exp 2877A: evaluation against early stage Mammary Adenocarcinoma 16/C implanted SC in C3H female mice; assay type: in vivo
Protocol: In Experiment #2877A the following general methodologies were employed:
Tumor and Animal Maintenance
Mammary adenocarcinoma-16/C were used in the studies. […] The mice were supplied food and water ad libitum.
Chemotherapy of Solid Tumors
Animals were pooled, implanted subcutaneously with 30 to 60 mg tumor fragments by a 12 gauge trocar on day 0, and again pooled before unselective distribution to the various treatment and control groups. For early stage treatment, chemotherapy was started within 1 to 3 days after tumor implantation while the number of cells was relatively small (10^7 to 10^8 cells). Tumors were measured with a caliper twice weekly. Mice were sacrificed when their tumors reached 1500 mg. Tumor weights are estimated from two-dimensional measurements:
Tumor weight (in mg)=(a×b^2)/2, where a and b are the tumor length and width in (mm), respectively.
End Points for Assessing Antitumor Activity for Solid Tumors
The following quantitative endpoints were used to assess antitumor activity: • a) Tumor growth delay (T−C value), where T is the median time (in days) required for the treatment group tumors to reach a predetermined size (e.g., 1000 mg), and C is the median time (in days) for the control group tumors to reach the same size. Tumor-free survivors are excluded from these calculations (cures are tabulated separately). This value is an important criterion of antitumor effectiveness because it allows the quantification of tumor cell kill. • b) Calculation of tumor cell kill For subcutaneously (SC) growing tumors, the log10 cell kill was calculated from the following formula:
[formula] where T−C is the tumor growth delay as described above and Td is the tumor volume doubling time (in days), estimated from the best fit straight line from a log-linear growth plot of the control group tumors in exponential growth (100 to 800 mg range). The conversion of the T−C values to log10 cell kill is possible because the Td of tumors regrowing post treatment (Rx) approximates the Td values of the tumors in untreated control mice.
The issue of conversion of tumor growth delay (T−C value) to log tumor cell kill is justified in this series because of the large number of cures obtained with 5 of the agents in this XK469 series that have been previously studied and patented. Cures are a clear indication of tumor cell kill (rather than stasis of tumor cell replication).
In selected cases, both for historic in vivo evaluation data as well as data presented here, it is of value to compare log kill numbers from trials of markedly different testing schedules. For this purpose, an activity table was created, and is presented below. It should be noted that an activity rating of +++ to ++++ is needed to effect partial regression (PR) or complete regression (CR) of 100 to 300 mg size masses of most transplanted solid tumors of mice. Thus, an activity rating of + or ++ would not be scored as active by usual clinical criteria. A PR is a reduction in tumor mass to less than 50% of pretreatment size. A CR is a reduction in tumor mass to below palpable size (i.e., reduction to zero detectable mass).

[2] = Protocol: Mammary adenocarcinoma-16/C were used in the studies. Tumors were maintained in the mouse strain of origin C3H (for the mammary tumors). Individual mouse body weights for each experiment were within 5 grams, and all mice were over 17 grams at the start of therapy. The mice were supplied food and water ad libitum.
The treatment and control groups were measured when the control group tumors reach approximately 700 to 1200 mg in size (median of group). The T/C value in percent is an indication of antitumor effectiveness: A T/C=0% means no tumor growth. […] A T/C equal to or less than 42% is considered significant antitumor activity by the Drug Evaluation Branch of the Division of Cancer Treatment (NCI). A T/C value <10% is considered to indicate highly significant antitumor activity, and is the level used by NCI to justify a clinical trial if toxicity, formulation, and certain other requirements are met (termed DN-2 level activity).

[3] = tested on: transplantable mouse tumors; settings: cited from earlier work
[4] = Cg 4, IV Q2dx7, 54 mg/kg, total 378 mg/kg
[5] = Cg 5, IV Q2dx7, 34 mg/kg, total 238 mg/kg
[6] = Cg 6, IV Q2dx7, 48-60 mg/kg, total 372 mg/kg
[7] = Cg 7, IV Q2dx7, 30-38 mg/kg, total 234 mg/kg
[8] = Cg 8, IV Qd1,3,5,7-13, 57-125 mg/kg, total 822 mg/kg
[9] = Cg 9, IV Qd1,3,5,7-13, 36-75 mg/kg, total 513 mg/kg

COc1c(Br)ccc2ccc(Oc3ccc(OC(C)C(=O)O)cc3)nc12 (stereo not drawn) [SH135R, 2-(4-(7-Bromo-8-methoxyquinolin-2-yloxy)phenoxy)propanoic acid]
Activity rating (Comments) [1, 4]: (++++) (Highly active ++++ >2.8) | Log Cell Kill Gross [1, 4]: 5.0 | Log Cell Kill Net [1, 4]: 1.4 | Median Tumor Burden in mg on d10 [1, 4]: 0 mg | T-C [1, 4]: 16.5 days | T/C % [1, 4]: 0% | Time to 1000 mg [1, 4]: 25.5 days | Tumor Free on d43 [1, 4]: 0/5 | Activity rating (Comments) [1, 5]: (++++) (Highly active ++++ >2.8) | Log Cell Kill Gross [1, 5]: 4.2 | Log Cell Kill Net [1, 5]: 0.6 | Median Tumor Burden in mg on d10 [1, 5]: 63 mg | T-C [1, 5]: 14 days | T/C % [1, 5]: 5.5% | Time to 1000 mg [1, 5]: 23 days | Tumor Free on d43 [1, 5]: 0/4 | T/C % ([1]; Cg 5, IV Q2dx7, 34 mg/kg, total 238 mg/kg, listed as SH 135(R)): 0%

COc1c(Cl)ccc2ccc(Oc3ccc(OC(C)C(=O)O)cc3)nc12 (stereo not drawn) [SH140R, 2-(4-(7-Chloro-8-methoxyquinolin-2-yloxy)phenoxy)propanoic acid]
Activity rating (Comments) [1, 6]: (++++) (Highly active ++++ >2.8) | Log Cell Kill Gross [1, 6]: 4.8 | Log Cell Kill Net [1, 6]: 1.2 | Median Tumor Burden in mg on d10 [1, 6]: 0 mg | T-C [1, 6]: 16 days | T/C % [1, 6]: 0% | Time to 1000 mg [1, 6]: 25 days | Tumor Free on d43 [1, 6]: 0/5 | Activity rating (Comments) [1, 7]: (++++) (Highly active ++++ >2.8) | Log Cell Kill Gross [1, 7]: 3.6 | Log Cell Kill Net [1, 7]: 0 | Median Tumor Burden in mg on d10 [1, 7]: 63 mg | T-C [1, 7]: 12 days | T/C % [1, 7]: 5.5% | Time to 1000 mg [1, 7]: 21 days | Tumor Free on d43 [1, 7]: 0/5 | Drug Death (day of death) [2, 6]: 0/5 | Drug Death (day of death) [2, 7]: 0/5

COc1c(F)ccc2ccc(Oc3ccc(OC(C)C(=O)O)cc3)nc12 (stereo not drawn) [SH144R, 2-(4-(7-Fluoro-8-methoxyquinolin-2-yloxy)phenoxy)propanoic acid]
Activity rating (Comments) [1, 8]: (++++) (Highly active ++++ >2.8) | Log Cell Kill Gross [1, 8]: 4.1 | Log Cell Kill Net [1, 8]: 0.5 | Median Tumor Burden in mg on d10 [1, 8]: 0 mg | T-C [1, 8]: 13.5 days | T/C % [1, 8]: 0% | Time to 1000 mg [1, 8]: 22.5 days | Tumor Free on d43 [1, 8]: 0/4 | Activity rating (Comments) [1, 9]: (+++) (2.0-2.8) | Log Cell Kill Gross [1, 9]: 2.1 | Log Cell Kill Net [1, 9]: −1.5 | Median Tumor Burden in mg on d10 [1, 9]: 320 mg | T-C [1, 9]: 7 days | T/C % [1, 9]: 28% | Time to 1000 mg [1, 9]: 16 days | Tumor Free on d43 [1, 9]: 0/5 | Drug Death (day of death) [2, 8]: 0/4 | Drug Death (day of death) ([2]; Cg 8, IV Qd1,3,5,7-13, 57-125 mg/kg, total 822 mg/kg, listed as SH 144(R)): no drug deaths | Drug Death (day of death) [2, 9]: 0/5

CC(Oc1ccc(Oc2cnc3ccc(Cl)cc3n2)cc1)C(=O)[O-].[Na+] (stereo not drawn) [XK469]
activity against transplantable mouse tumors ([3]; Corbett et al., Investigational New Drugs 16, 129-139 (1998)): broad activity | undesirable side effects ([3]; reported, in vivo): in vivo toxicity, e.g., paralytic ileus, GI-epithelial damage, marrow toxicity, neuromuscular toxicity and weight loss | potency ([3]; reported): relatively low potency
